In patent publication US10738056B2 (Aduro BioTech, Inc., priority 2017, dated 2020):
Read-outs that look alike come from different tables or passages of the source.

Experiments:
[1] = target: Human cGAS amino acids 155-522 (Homo sapiens (Human), UniProt Q8N884); test: cGAS biochemical activity assay (ATP remaining, Kinase-Glo Max luminescence)
[2] = system: cGAS/STING pathway in THP1 cells; test: THP1 cell-based cGAS/STING pathway activity assay (IRF-3-linked luciferase reporter); conditions: Homo sapiens, THP-1
Source text: A cellular assay can be used to assess the compounds of the invention for their ability to inhibit the cGAS/STING pathway. Cells that express a luciferase-based reporter that is linked to IRF-3 activation are used to determine response as a function of compound concentration. Such an assay is described in Vincent et al., Nature Communications 2017, 8(1):750, doi: 10.1038/s41467-017-00833-9.
A cellular assay can be used to assess the compounds of the invention for their ability to inhibit the cGAS/STING pathway. Cells that express a luciferase-based reporter that is linked to IRF-3 activation are used to determine response as a function of compound concentration. Such an assay is described in Vincent et al., Nature Communications 2017, 8(1):750, doi: 10.1038/s41467-017-00833-9. Compounds of the invention were assessed using similar assay methods in a THP1 cell assay to generate IC50 values as provided in the following Table 16. In this table, activity level “A” indicates an IC50 value less than 20 μM, “B” indicates an IC50 value between 20 and 100 μM, and “C” indicates an IC50 value above the upper limit of the assay (100 μM), or where an IC50 value could not be generated from the data.

[3] = human cGAS 155-522, ATP remaining (Kinase-Glo Max), read-out: cGAS IC50

Chain of Human cGAS amino acids 155-522 (Q8N884 157-522): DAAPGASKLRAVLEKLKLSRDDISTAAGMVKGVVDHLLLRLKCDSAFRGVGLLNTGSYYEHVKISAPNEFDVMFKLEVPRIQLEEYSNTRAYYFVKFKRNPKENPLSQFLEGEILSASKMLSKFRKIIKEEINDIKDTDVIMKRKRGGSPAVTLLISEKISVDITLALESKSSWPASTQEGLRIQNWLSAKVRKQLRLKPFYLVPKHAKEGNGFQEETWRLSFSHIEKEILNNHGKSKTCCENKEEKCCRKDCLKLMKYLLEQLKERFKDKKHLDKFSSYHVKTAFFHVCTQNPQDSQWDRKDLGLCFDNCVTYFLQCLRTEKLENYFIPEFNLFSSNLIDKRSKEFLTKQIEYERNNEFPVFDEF

Structure (SMILES)	IC50 [1, 3]	IC50 [2]	IC50 ([1]; cGAS IC50, human cGAS 155-522, ATP remaining (Kinase-Glo Max))
COc1cccc(NC(=O)c2c(C)[nH]c3c(-c4ccccc4)c(C(F)(F)F)nn3c2=O)n1 [Compound A1064, N-(6-methoxypyridin-2-yl)-5-methyl-7-oxo-3-phenyl-2-(trifluoromethyl)-4,7-dihydropyrazolo[1,5-a]pyrimidine-6-carboxamide]	< 20 µM	20 to 100 µM	
COc1ccccc1NC(=O)c1c(C)[nH]c2c(-c3ccccc3)c(C(F)(F)F)nn2c1=O [Compound A1031, N-(2-methoxyphenyl)-5-methyl-7-oxo-3-phenyl-2-(trifluoromethyl)-4,7-dihydropyrazolo[1,5-a]pyrimidine-6-carboxamide]	< 20 µM	> 100 µM	
COc1cccc(NC(=O)c2c(C)[nH]c3c(-c4ccccc4)c(C(F)(F)F)nn3c2=O)c1 [Compound A1032, N-(3-methoxyphenyl)-5-methyl-7-oxo-3-phenyl-2-(trifluoromethyl)-4,7-dihydropyrazolo[1,5-a]pyrimidine-6-carboxamide]	< 20 µM	< 20 µM	
Cc1[nH]c2c(-c3ccccc3)c(C(F)(F)F)nn2c(=O)c1-c1nc2c(OC(=O)N(C)C)cccc2o1 [Compound C1088, 2-(5-methyl-7-oxo-3-phenyl-2-(trifluoromethyl)-4,7-dihydropyrazolo[1,5-a]pyrimidin-6-yl)benzo[d]oxazol-4-yl dimethylcarbamate]		20 to 100 µM	< 20 µM
Cc1[nH]c2c(-c3ccccc3)c(C(F)(F)F)nn2c(=O)c1C(=O)Nc1ccn(CCO)n1 [Compound A1118, N-(1-(2-hydroxyethyl)-1H-pyrazol-3-yl)-5-methyl-7-oxo-3-phenyl-2-(trifluoromethyl)-4,7-dihydropyrazolo[1,5-a]pyrimidine-6-carboxamide]	20 to 250 µM	> 100 µM	
Cc1[nH]c2c(-c3ccccc3)c(C(F)(F)F)nn2c(=O)c1C(=O)Nc1cnn(C)c1 [Compound A1077, 5-methyl-N-(1-methyl-1H-pyrazol-4-yl)-7-oxo-3-phenyl-2-(trifluoromethyl)-4,7-dihydropyrazolo[1,5-a]pyrimidine-6-carboxamide]	< 20 µM	> 100 µM	
COc1cccc(NC(=O)Cc2c(C)[nH]c3c(-c4ccccc4)c(C(F)(F)F)nn3c2=O)c1 [Compound B1011, N-(3-methoxyphenyl)-2-(5-methyl-7-oxo-3-phenyl-2-(trifluoromethyl)-4,7-dihydropyrazolo[1,5-a]pyrimidin-6-yl)acetamide]	20 to 250 µM	20 to 100 µM	
Cc1[nH]c2c(-c3ccccc3)c(C(F)(F)F)nn2c(=O)c1C(=O)Nc1cc[nH]n1 [Compound A1076, 5-methyl-7-oxo-3-phenyl-N-(1H-pyrazol-3-yl)-2-(trifluoromethyl)-4,7-dihydropyrazolo[1,5-a]pyrimidine-6-carboxamide]	< 20 µM	20 to 100 µM	
Cc1cc(NC(=O)c2c(C)[nH]c3c(-c4ccccc4)c(C(F)(F)F)nn3c2=O)[nH]n1 [Compound A1081, 5-methyl-N-(3-methyl-1H-pyrazol-5-yl)-7-oxo-3-phenyl-2-(trifluoromethyl)-4,7-dihydropyrazolo[1,5-a]pyrimidine-6-carboxamide]	< 20 µM	20 to 100 µM	

Further lines, with some results ahead:

IC50 [1, 3]	IC50 [2]	Structure (SMILES)	IC50 ([1]; cGAS IC50, human cGAS 155-522, ATP remaining (Kinase-Glo Max))
< 20 µM	20 to 100 µM	Cc1[nH]c2c(-c3ccccc3)c(C(F)(F)F)nn2c(=O)c1-c1nc2c(=O)n(C)ccc2o1 [Compound C1106, 5-methyl-2-(5-methyl-7-oxo-3-phenyl-2-(trifluoromethyl)-4,7-dihydropyrazolo[1,5-a]pyrimidin-6-yl)oxazolo[4,5-c]pyridin-4(5H)-one]	
< 20 µM	> 100 µM	Cc1[nH]c2c(-c3ccccc3)c(C(F)(F)F)nn2c(=O)c1-c1nc2c(o1)CCCNC2=O [Compound C1059, 2-(5-methyl-7-oxo-3-phenyl-2-(trifluoromethyl)-4,7-dihydropyrazolo[1,5-a]pyrimidin-6-yl)-5,6,7,8-tetrahydro-4H-oxazolo[4,5-c]azepin-4-one]	
< 20 µM	> 100 µM	Cc1[nH]c2c(-c3ccccc3)c(C(F)(F)F)nn2c(=O)c1-c1nnc(C2(N)CCCC2)o1 [Compound D1062, 6-(5-(1-aminocyclopentyl)-1,3,4-oxadiazol-2-yl)-5-methyl-3-phenyl-2-(trifluoromethyl)pyrazolo[1,5-a]pyrimidin-7(4H)-one]	
< 20 µM	< 20 µM	Cc1[nH]c2c(-c3ccccc3)c(C#N)nn2c(=O)c1-c1nc2c(N(C)C)cccc2o1 [Compound C1272, 6-(4-(dimethylamino)benzo[d]oxazol-2-yl)-5-methyl-7-oxo-3-phenyl-4,7-dihydropyrazolo[1,5-a]pyrimidine-2-carbonitrile]	
< 20 µM	> 100 µM	COc1cccc2oc(-c3c(C(=O)NCC(C)(C)O)[nH]c4c(-c5ccccc5)c(C(F)(F)F)nn4c3=O)nc12 [Compound C1219, N-(2-hydroxy-2-methylpropyl)-6-(4-methoxybenzo[d]oxazol-2-yl)-7-oxo-3-phenyl-2-(trifluoromethyl)-4,7-dihydropyrazolo[1,5-a]pyrimidine-5-carboxamide]	
< 20 µM	> 100 µM	COc1cccc2[nH]c(-c3c(C)[nH]c4c(-c5ccccc5)c(C(F)(F)F)nn4c3=O)nc12 [Compound C1018, 6-(4-methoxy-1H-benzo[d]imidazol-2-yl)-5-methyl-3-phenyl-2-(trifluoromethyl)pyrazolo[1,5-a]pyrimidin-7(4H)-one]	
< 20 µM	> 100 µM	Cc1[nH]c2c(-c3ccccc3)c(C(F)(F)F)nn2c(=O)c1-c1nc2c([S+](C)[O-])cccc2o1 (stereo not shown) [Compound C1097, 5-methyl-6-(4-(methylsulfinyl)benzo[d]oxazol-2-yl)-3-phenyl-2-(trifluoromethyl)pyrazolo[1,5-a]pyrimidin-7(4H)-one]	
< 20 µM	> 100 µM	Cc1[nH]c2c(-c3ccccc3)c(C(F)(F)F)nn2c(=O)c1-c1nnc(C2CCCN(S(C)(=O)=O)C2)o1 (stereo not shown) [Compound D1040, 5-methyl-6-(5-(1-(methylsulfonyl)piperidin-3-yl)-1,3,4-oxadiazol-2-yl)-3-phenyl-2-(trifluoromethyl)pyrazolo[1,5-a]pyrimidin-7(4H)-one]	
20 to 250 µM	> 100 µM	Cc1[nH]c2c(-c3ccccc3)c(C(F)(F)F)nn2c(=O)c1-c1nnc(C(C)(O)C(F)(F)F)o1 (stereo not shown) [Compound D1008, 5-methyl-3-phenyl-6-(5-(1,1,1-trifluoro-2-hydroxypropan-2-yl)-1,3,4-oxadiazol-2-yl)-2-(trifluoromethyl)pyrazolo[1,5-a]pyrimidin-7(4H)-one]	
< 20 µM	> 100 µM	COc1nc(N)cc2oc(-c3c(C)[nH]c4c(-c5ccccc5)c(C#N)nn4c3=O)nc12 [Compound C1218, 6-(6-amino-4-methoxyoxazolo[4,5-c]pyridin-2-yl)-5-methyl-7-oxo-3-phenyl-4,7-dihydropyrazolo[1,5-a]pyrimidine-2-carbonitrile]	
> 250 µM	< 20 µM	Cc1[nH]c2c(-c3ccccc3)c(C(F)(F)F)nn2c(=O)c1-c1nc2ccccc2o1 [Compound C1011, 6-(benzo[d]oxazol-2-yl)-5-methyl-3-phenyl-2-(trifluoromethyl)pyrazolo[1,5-a]pyrimidin-7(4H)-one]	
< 20 µM	< 20 µM	COc1cccc2oc(-c3c(N4CCOCC4)[nH]c4c(-c5ccccc5)c(C(F)(F)F)nn4c3=O)nc12 [Compound C1258, 6-(4-methoxybenzo[d]oxazol-2-yl)-5-morpholino-3-phenyl-2-(trifluoromethyl)pyrazolo[1,5-a]pyrimidin-7(4H)-one]	
< 20 µM	> 100 µM	COc1cccc2oc(-c3c(CS(C)(=O)=O)[nH]c4c(-c5ccccc5)c(C(F)(F)F)nn4c3=O)nc12 [Compound C1138, 6-(4-methoxybenzo[d]oxazol-2-yl)-5-((methylsulfonyl)methyl)-3-phenyl-2-(trifluoromethyl)pyrazolo[1,5-a]pyrimidin-7(4H)-one]	
< 20 µM	20 to 100 µM	COc1cccc2oc(-c3c(COCC4CNC(=O)O4)[nH]c4c(-c5ccccc5)c(C(F)(F)F)nn4c3=O)nc12 (stereo not shown) [Compound C1177, 5-(((6-(4-methoxybenzo[d]oxazol-2-yl)-7-oxo-3-phenyl-2-(trifluoromethyl)-4,7-dihydropyrazolo[1,5-a]pyrimidin-5-yl)methoxy)methyl)oxazolidin-2-one]	
< 20 µM	> 100 µM	Cc1nn2c(=O)c(-c3nnc(C4CCCOC4)o3)c(C)[nH]c2c1-c1ccccc1 (stereo not shown) [Compound D1030, 2,5-dimethyl-3-phenyl-6-(5-(tetrahydro-2H-pyran-3-yl)-1,3,4-oxadiazol-2-yl)pyrazolo[1,5-a]pyrimidin-7(4H)-one]	
< 20 µM	< 20 µM	Cc1[nH]c2c(-c3ccccc3)c(C(F)(F)F)nn2c(=O)c1-c1nc2c(Br)cccc2o1 [Compound C1040, 6-(4-bromobenzo[d]oxazol-2-yl)-5-methyl-3-phenyl-2-(trifluoromethyl)pyrazolo[1,5-a]pyrimidin-7(4H)-one]	
< 20 µM	> 100 µM	Cc1[nH]c2c(-c3ccccc3)c(C#N)nn2c(=O)c1-c1nc2ccc(N)c(Cl)c2o1 [Compound C1271, 6-(6-amino-7-chlorobenzo[d]oxazol-2-yl)-5-methyl-7-oxo-3-phenyl-4,7-dihydropyrazolo[1,5-a]pyrimidine-2-carbonitrile]	
